# “And” between values parts separate entries of the source, which are not always exact repeats. Identical values can stand only once.
# How the values were obtained:
# Format in all cases: in vivo
# [1] = tested on: Swiss mice CD1; test: forced swim test, Alverine and imipramine administered intraperitoneally to mice (Example 3, first test); parameters: key to Dunnett test vs control group: * indicates a significant difference for p < 0.05 (Dunnett test); ns indicates an insignificant result; details: for immobility time, individual animals / immobility time, Mean: 30 minutes prior to the test; for immobility time, Mean: n = 10
# Protocol: (§1) These are Swiss mice CD1 (CD-1® (ICR) IGS (Charles River France) weighing between 25 and 35 g. […] They are placed 15 to 20 per cage, over an acclimatising period of at least 5 days prior to the tests. They are identified by marking on the fur. […] The mice were divided into two test comprising six groups of 10 mice each. For the first test: The first group is the control group: it is treated only by excipient. The second group is treated with imipramine at a dose of 3 mg/kg The third group is treated with Alverine at a dose of 3 mg/kg The fourth group is treated with Alverine at a dose of 3 mg/kg and imipramine at a dose of 3 mg/kg The fifth group is treated with imipramine at a dose of 10 mg/kg […] The doses are expressed in terms of free active substances. The test substances are prepared extemporaneously in a saline solution. The treatments are co-administered 30 minutes prior to the test in a coded and random order intraperitoneally with a volume of 10 ml/kg (5 ml/kg for each administration). Thirty minutes following administration the six groups of mice are subjected to the forced swim test, in a vertical Plexiglas cylinder (height 24 cm, diameter 9 cm) containing water (height 6 cm, temperature 18-22° C.). The total duration of immobility is measured over the last four minutes of the test, six minutes in total. A mouse is deemed immobile when it ceases struggling and floats in the water without movements superfluous to those allowing it to keep its head above water. A drop in immobility time is the reflection of an antidepressant effect. The forced swim test is a pre-clinical behavioural model, which has good predictive validity and is widely employed for determining the efficacy of antidepressant medications (Borsini and Meli, 1988). The results are expressed in total duration of immobility in seconds and as a percentage of variation of the total duration of immobility calculated from the average value of the control group. The statistical significance between two treated groups is determined by using a Student test (P<0.05) The data are analysed using <<SigmaStat>> software.
# [2] = tested on: Swiss mice CD1; test: forced swim test, Alverine administered intraperitoneally to mice (Example 1); details: Imipramine 10 mg/kg intraperitoneally
# Protocol: To establish the advantages according to the present invention a study was carried out to 50 mice. They were divided into 5 groups of 10 mice each. These are Swiss mice CD1 (CD-1® (ICR) IGS (Charles River France) weighing between 25 and 35 g.
# They were placed in a room at a temperature of between 19.5 and 24.5° C. and a relative humidity of 45 to 65% with a light/dark cycle of 12 h, ad libitum access to filtered water and pellets of laboratory-standard food.
# They are placed 15 to 20 per cage, over an acclimatising period of at least 5 days prior to the tests. They are identified by marking on the fur.
# The substance to be tested is Alverine citrate (Sigma, in the form of dry powder, with a salt/base ratio of 1.68) comparatively to imipramine chlorhydrate (Sigma, in the form of dry powder, with a salt/base ratio of 1.13).
# The first group is the control group: it is treated only by excipient.
# The second group is treated with Alverine at a dose of 3 mg/kg
# The third group is treated with Alverine at a dose of 10 mg/kg
# The fourth group is treated with Alverine at a dose of 30 mg/kg
# The fifth group is treated with imipramine (tricyclic antidepressant) at a dose of 10 mg/kg
# The doses are expressed in terms of free active substances. The substances are prepared extemporaneously in the excipient. The treatments are administered 30 minutes prior to the test in a coded and random order intraperitoneally with a volume of 10 ml/kg.
# Thirty minutes following administration the five groups of mice are subjected to the forced swim test, in a vertical Plexiglas cylinder (height 24 cm, diameter 9 cm) containing water (height 6 cm, temperature 18-22° C.). The total duration of immobility is measured over the last four minutes of the test, six minutes in total. A mouse is deemed immobile when it ceases struggling and floats in the water without movements superfluous to those allowing it to keep its head above water. A drop in immobility time is the reflection of an antidepressant effect.
# The forced swim test is a pre-clinical behavioural model, which has good predictive validity and is widely employed for determining the efficacy of antidepressant medications (Borsini and Meli, 1988).
# The results are expressed in total duration of immobility in seconds and as a percentage of variation of the total duration of immobility calculated from the average value of the control group.
# The statistical significance between the treated groups and the control group is determined by a Dunnett test using the residual variation according to analysis of the variance (P<0.05). The data are analysed using <<SigmaStat>> software.
# [3] = tested on: Swiss mice CD1; test: forced swim test, Alverine administered orally to mice (Example 2)
# [4] = tested on: Swiss mice CD1; test: forced swim test, Alverine and fluoxetine administered intraperitoneally to mice (Example 3, second test); details: for immobility time, individual animals / immobility time, Mean: 30 minutes prior to the test; for immobility time, Mean: n = 10
# Protocol: as §1, with “the second” for “the first”, “excipient.” for “excipient. The second group is treated with imipramine at a dose of 3 mg/kg The third group is treated with Alverine at a dose of 3 mg/kg The fourth group is treated with Alverine at a dose of 3 mg/kg and imipramine at a dose of 3 mg/kg The fifth group is treated with imipramine at a dose of 10 mg/kg”, “administration). […]” for “administration). Thirty minutes following administration the six groups of mice are subjected to the forced swim test, in a vertical Plexiglas cylinder (height 24 cm, diameter 9 cm) containing water (height 6 cm, temperature 18-22° C.).”
# [5] = Imipramine 3 mg/kg intraperitoneally
# [6] = Imipramine 10 mg/kg intraperitoneally
# [7] = tested alone at 3 mg/kg intraperitoneally
# [8] = Fluoxetine 3 mg/kg intraperitoneally
# [9] = Fluoxetine 10 mg/kg intraperitoneally
smiles,measurement,setting,value
"CN(C)CCCN1c2ccccc2CCc2ccccc21 [Imipramine, imipramine]",% of variation of immobility time vs control group,[1]; [5],−24%
same,Dunnett test vs control group,[1]; [5],ns
same,"immobility time, individual animals",[1]; [5],121 sec (2×) and 70 sec and 74 sec and 122 sec and 93 sec and 94 sec and 141 sec and 133 sec and 123 sec
same,"immobility time, Mean",[1]; [5],109.2 s
same,% of variation of immobility time vs control group,[1]; [6],−67%
same,Dunnett test vs control group,[1]; [6],* (* indicates a significant difference for p < 0.05 (Dunnett test))
same,"immobility time, individual animals",[1]; [6],0 s and 62 s and 38 s and 54 s and 45 s and 92 s and 26 s and 77 s and 80 s and 4 s
same,"immobility time, Mean",[1]; [6],47.8 s
same,decrease in the duration of immobilisation as compared to the control group (in words),[1]; [7],statistically insignificant decrease
same,% of variation of immobility time vs control group,[2],−62%
same,Dunnett test vs control group,[2],* (* indicates a significant difference for p < 0.05 (Dunnett test))
same,"immobility time, individual animals",[2]; 30 minutes prior to the test,67 s and 70 s and 1 s and 89 s and 3 s and 9 s and 38 s and 99 s and 53 s and 65 s
same,"immobility time, Mean","[2]; 30 minutes prior to the test, N = 10",49.4 s
same,% of variation of immobility time vs control group,[3]; Imipramine 30 mg/kg orally,−58%
same,Dunnett test vs control group,[3]; Imipramine 30 mg/kg orally,* (* indicates a significant difference for p < 0.05 (Dunnett test))
same,immobility time compared with mice treated with Alverine,[3]; Imipramine 30 mg/kg orally vs Alverine 100 mg/kg orally,comparable to the mice of the fourth group treated at 100 mg/kg of Alverine
same,"immobility time, individual animals","[3]; Imipramine 30 mg/kg orally, 60 minutes prior to the test",52 s and 64 s and 55 s and 5 s and 75 s and 67 s and 70 s and 89 s and 45 s and 96 s
same,"immobility time, Mean","[3]; Imipramine 30 mg/kg orally, 60 minutes prior to the test, N = 10",61.9 s
"CNCCC(Oc1ccc(C(F)(F)F)cc1)c1ccccc1 (stereo not drawn) [Fluoxetine, fluoxetine]",% of variation of immobility time vs control group,[4]; [8],−30%
same,Dunnett test vs control group,[4]; [8],* (* indicates a significant difference for p < 0.05 (Dunnett test))
same,"immobility time, individual animals",[4]; [8],149 s and 18 s and 101 s and 99 s and 10 s and 100 s and 103 s
same,"immobility time, Mean",[4]; [8],105.6 s
same,% of variation of immobility time vs control group,[4]; [9],−45%
same,Dunnett test vs control group,[4]; [9],* (* indicates a significant difference for p < 0.05 (Dunnett test))
same,"immobility time, individual animals",[4]; [9],76 sec (2×) and 83 sec and 105 sec and 90 sec and 28 sec and 88 sec and 34 sec
same,"immobility time, Mean",[4]; [9],82.7 s
same,decrease in the duration of immobilisation as compared to the control group (in words),[4]; [7],statistically significant decrease
